Values quoted from earlier work as cited in publication PMC11676910, “Manganese(II) Complexes with Non-Steroidal Anti-Inflammatory Drugs: Structure and Biological Activity” (International Journal of Molecular Sciences, 2024).
Like-named read-outs stand apart in the source and are kept apart here.

What was measured:
[1] = target: human serum albumin (HSA) (Homo sapiens, UniProt P02768); parameters: purchased Sigma–Aldrich Co; details: cited from earlier work
[2] = parameters: concentration or dose not given beside the values; details: free NSAID; cited from earlier work
CT DNA = details: cited from earlier work
EB–DNA adduct (CT DNA) = details: cited from earlier work
[3] = target: bovine serum albumin (BSA) (Bos taurus, UniProt P02769); parameters: purchased Sigma–Aldrich Co; details: cited from earlier work
Chain of bovine serum albumin (BSA) (P02769 25-607): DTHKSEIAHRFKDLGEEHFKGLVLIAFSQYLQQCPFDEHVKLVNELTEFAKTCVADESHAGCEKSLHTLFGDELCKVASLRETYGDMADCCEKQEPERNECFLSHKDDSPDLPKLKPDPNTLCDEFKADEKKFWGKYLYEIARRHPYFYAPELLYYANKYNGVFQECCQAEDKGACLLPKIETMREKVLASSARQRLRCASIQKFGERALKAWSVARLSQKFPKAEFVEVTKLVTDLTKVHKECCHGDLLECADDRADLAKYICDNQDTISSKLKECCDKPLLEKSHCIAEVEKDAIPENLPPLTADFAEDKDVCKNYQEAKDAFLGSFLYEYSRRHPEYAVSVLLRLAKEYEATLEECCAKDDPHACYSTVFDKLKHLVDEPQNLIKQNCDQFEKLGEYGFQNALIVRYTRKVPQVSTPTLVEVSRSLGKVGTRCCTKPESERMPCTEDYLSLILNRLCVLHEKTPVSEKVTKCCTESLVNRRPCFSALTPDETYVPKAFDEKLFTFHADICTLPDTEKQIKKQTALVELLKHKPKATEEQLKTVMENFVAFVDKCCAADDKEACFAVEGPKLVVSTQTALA

Chain of human serum albumin (HSA) (P02768 25-609): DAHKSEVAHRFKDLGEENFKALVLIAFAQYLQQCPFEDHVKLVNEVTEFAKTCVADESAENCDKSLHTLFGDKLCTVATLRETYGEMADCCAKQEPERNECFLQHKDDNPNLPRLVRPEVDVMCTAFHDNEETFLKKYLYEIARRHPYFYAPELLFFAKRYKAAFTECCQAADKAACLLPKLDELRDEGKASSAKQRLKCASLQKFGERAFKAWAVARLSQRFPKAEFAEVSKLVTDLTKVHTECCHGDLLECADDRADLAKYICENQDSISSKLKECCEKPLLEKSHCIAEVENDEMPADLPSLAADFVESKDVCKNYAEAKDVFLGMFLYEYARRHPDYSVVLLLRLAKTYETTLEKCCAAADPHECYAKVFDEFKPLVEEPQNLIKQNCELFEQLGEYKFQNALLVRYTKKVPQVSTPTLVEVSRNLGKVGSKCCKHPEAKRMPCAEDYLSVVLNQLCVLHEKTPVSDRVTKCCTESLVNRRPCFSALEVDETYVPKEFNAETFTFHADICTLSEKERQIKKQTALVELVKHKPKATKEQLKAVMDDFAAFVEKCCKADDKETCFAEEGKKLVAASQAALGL

| Structure (SMILES) | HSA binding constant Κ(HSA) [1] | HSA quenching constant kq(HSA) [1] | % ABTS radical scavenging activity (ABTS%) [2] | ΔA/A0 (%) hyper-/hypo-chromism of UV band (CT DNA; first band listed in the cell) | Δλ (nm) shift of λmax (CT DNA; first band listed in the cell) | ΔA/A0 (%) hyper-/hypo-chromism of UV band (CT DNA; second band listed in the cell) | Δλ (nm) shift of λmax (CT DNA; second band listed in the cell) | EB–DNA fluorescence quenching ΔI/Io (%) (EB–DNA adduct (CT DNA)) | Stern–Volmer constant KSV (EB–DNA) (EB–DNA adduct (CT DNA)) | quenching constant kq of the EB–DNA fluorescence (EB–DNA adduct (CT DNA)) | BSA binding constant Κ(BSA) [3] | BSA quenching constant kq(BSA) [3] |
| --- | --- | --- | --- | --- | --- | --- | --- | --- | --- | --- | --- | --- |
| O=C(O)c1ccccc1Nc1cccc(C(F)(F)F)c1 [Hfluf, flufenamic acid] | 1.79 (±0.17) × 10^5 M^–1 | 1.86 (±0.21) × 10^12 M^–1s^–1 | 64.57 ± 0.43% | +40% | +10 nm | < −50% | 0 nm | 67.0% | 6.34 (±0.30) × 10^5 M^–1 | 2.76 (±0.13) × 10^13 M^–1s^–1 | 1.06 (±0.04) × 10^6 M^–1 | 1.83 (±0.20) × 10^13 M^–1s^–1 |
| Cc1cccc(Nc2ccccc2C(=O)O)c1C [Hmef, mefenamic acid] | 1.32 (±0.15) × 10^5 M^–1 | 7.13 (±0.34) × 10^12 M^–1s^–1 | 66.32 ± 0.38% | +10% | 0 nm |  |  | 80.0% | 1.58 (±0.06) × 10^5 M^–1 | 6.87 (±0.26) × 10^12 M^–1s^–1 | 1.35 (±0.22) × 10^5 M^–1 | 2.78 (±0.20) × 10^13 M^–1s^–1 |
| Cc1c(Cl)cccc1Nc1ccccc1C(=O)O [Htolf, tolfenamic acid] | 3.12 (±0.25) × 10^5 M^–1 | 6.10 (±0.38) × 10^12 M^–1s^–1 | 59.43 ± 0.33% | +40% | +5 nm | < −50% | −2 nm | 74.0% | 1.15 (±0.04) × 10^6 M^–1 | 5.00 (±0.17) × 10^13 M^–1s^–1 | 1.60 (±0.14) × 10^5 M^–1 | 2.18 (±0.12) × 10^13 M^–1s^–1 |
| Cc1ccc(Cl)c(Nc2ccccc2C(=O)O)c1Cl [Na meclf, sodium meclofenamate] | 1.05 (±0.03) × 10^6 M^–1 | 2.98 (±0.31) × 10^13 M^–1s^–1 | 59.48 ± 0.06% | −12% | −1 nm | +5% | −2 nm | 80.1% | 8.20 (±0.26) × 10^4 M^–1 | 3.57 (±0.11) × 10^12 M^–1s^–1 | 1.78 (±0.11) × 10^6 M^–1 | 4.84 (±0.32) × 10^13 M^–1s^–1 |
